Source: article PMC12655351, “Synthesis and Anticancer Activity Evaluation of New 5-((5-Nitrofuran-2-yl)allylidene)-2-thioxo-4-thiazolidinones” (Pharmaceuticals, 2025)

Tests used:
MOLT-4 = settings: MOLT-4, 48 h
SR [1] = settings: 48 h
HCT-116 = settings: HCT-116, 48 h
HT29 = settings: HT29, 48 h
OVCAR-3 [2] = settings: OVCAR-3, 48 h
A498 [3] = settings: A498, 48 h
SN12C [4] = settings: SN12C, 48 h
TK-10 = settings: TK-10, 48 h
Leukemia = Leukemia subpanel
CNS cancer [5] = settings: CNS cancer subpanel
Melanoma = Melanoma subpanel
Breast cancer = Breast cancer subpanel
[6] = tested on: panel of 60 cancer cell lines
K-562 = experiment: cells; settings: Homo sapiens, K562, 48 h
SR [7] = experiment: cells; settings: Homo sapiens, 48 h
NCI-H23 = experiment: cells; settings: Homo sapiens, NCI-H23, 48 h
LOX IMVI = experiment: cells; settings: Homo sapiens, 48 h
SK-MEL-28 = experiment: cells; settings: Homo sapiens, SK-MEL-28, 48 h
UACC-257 = experiment: cells; settings: Homo sapiens, UACC-257, 48 h
OVCAR-3 [8] = experiment: cells; settings: Homo sapiens, OVCAR-3, 48 h
NCI/ADR-RES = experiment: cells; settings: Homo sapiens, 48 h
786-0 = experiment: cells; settings: Homo sapiens, 786-0, 48 h
A498 [9] = experiment: cells; settings: Homo sapiens, A498, 48 h
SN12C [10] = experiment: cells; settings: Homo sapiens, 48 h
CNS cancer [11] = experiment: cells; settings: Homo sapiens
Renal Cancer = experiment: cells; settings: Homo sapiens
Prostate Cancer = experiment: cells; settings: Homo sapiens, read-out: MG_MID GI50
[12] = tested on: panel of 60 cancer cell lines; experiment: cells; settings: Homo sapiens, read-out: MG_MID GI50
A549/ATCC = experiment: NCI-60 SRB screen
EKVX = experiment: NCI-60 SRB screen; settings: 48 h
HOP-62 = experiment: NCI-60 SRB screen; settings: HOP-62, 48 h
HCT-15 = experiment: NCI-60 SRB screen; settings: HCT-15, 48 h
KM12 = experiment: NCI-60 SRB screen; settings: KM12, 48 h
SW-620 = experiment: NCI-60 SRB screen; settings: SW-620, 48 h
SF-295 = experiment: NCI-60 SRB screen; settings: SF-295, 48 h
U251 = experiment: NCI-60 SRB screen
IGROV1 = experiment: NCI-60 SRB screen
MCF7 = experiment: NCI-60 SRB screen; settings: MCF7, 48 h
MDA-MB-468 = experiment: NCI-60 SRB screen; settings: MDA-MB-468, 48 h

CCCC(C(=O)O)N1C(=O)/C(=C/C=C/c2ccc([N+](=O)[O-])o2)SC1=S (stereo not drawn) [4b, 2-((Z)-5-((E)-3-(5-Nitrofuran-2-yl)allylidene)-4-oxo-2-thioxothiazolidin-3-yl)pentanoic acid]
TGI (MOLT-4): 14.4 µM | TGI (SR [1]): 8.87 µM | TGI (HCT-116): 3.90 µM | TGI (HT29): 3.81 µM | TGI (OVCAR-3 [2]): 5.39 µM | TGI (A498 [3]): 7.21 µM | growth GP (SN12C [4]; 10 μM): -95.04% | TGI (SN12C [4]): 4.05 µM | TGI (TK-10): 8.16 µM | MG_MID TGI (Leukemia): 9.43 µM | MG_MID TGI (CNS cancer [5]): 4.46 µM | MG_MID TGI (Melanoma): 3.41 µM | MG_MID TGI (Breast cancer): 5.00 µM | Positive cytostatic effect (ratio of cell lines with GP from 0 to 50 to total number) ([6]; 10 μM, 48 h): 4/55 | Mean growth ([6]; 10 μM, 48 h, one dose): 36.52% | MG_MID TGI ([6]; full panel (last line of Table S2)): 5.85 µM | GI50 (K-562; K-562, 48 h): 2.77 µM | CC50 (K-562; read-out: LC50): > 100 µM | GI50 (SR [7]): 1.86 µM | CC50 (SR [7]; read-out: LC50): > 100 µM | GI50 (NCI-H23): 1.97 µM | CC50 (NCI-H23; read-out: LC50, NCI-H23, 48 h): 8.57 µM | GI50 (LOX IMVI): 1.59 µM | CC50 (LOX IMVI; read-out: LC50, LOX IMVI, 48 h): 6.11 µM | GI50 (SK-MEL-28): 1.76 µM | CC50 (SK-MEL-28; read-out: LC50, SK-MEL-28, 48 h): 6.98 µM | GI50 (UACC-257): 1.96 µM | CC50 (UACC-257; read-out: LC50, UACC-257, 48 h): 14.8 µM | GI50 (OVCAR-3 [8]): 2.18 µM | GI50 (NCI/ADR-RES): 2.03 µM | CC50 (NCI/ADR-RES; read-out: LC50, NCI/ADR-RES, 48 h): 21.4 µM | GI50 (786-0): 3.71 µM | GI50 (A498 [9]): 2.24 µM | GI50 (SN12C [10]): 1.76 µM | CC50 (SN12C [10]; read-out: LC50, SN12C, 48 h): 9.32 µM | GI50 (CNS cancer [11]; read-out: MG_MID GI50): 1.93 µM | CC50 (CNS cancer [11]; read-out: MG_MID LC50): 11.6 µM | GI50 (Renal Cancer; read-out: MG_MID GI50): 2.25 µM | CC50 (Renal Cancer; read-out: MG_MID LC50): 18.5 µM | GI50 (Prostate Cancer): 2.65 µM | GI50 [12]: 2.17 µM | TGI (A549/ATCC; 48 h): 5.40 µM | GI50 (A549/ATCC; Homo sapiens, A549, 48 h): 2.22 µM | TGI (EKVX): 7.77 µM | GI50 (EKVX; Homo sapiens): 2.53 µM | CC50 (EKVX; Homo sapiens, read-out: LC50, EKVX, 48 h): 27.7 µM | TGI (HOP-62): 5.43 µM | GI50 (HOP-62; Homo sapiens): 2.23 µM | TGI (HCT-15): 3.39 µM | GI50 (HCT-15; Homo sapiens): 1.65 µM | CC50 (HCT-15; Homo sapiens, read-out: LC50, HCT-15, 48 h): 6.97 µM | GI50 (KM12; Homo sapiens): 1.38 µM | TGI (KM12): 2.78 µM | GI50 (SW-620; Homo sapiens): 1.55 µM | TGI (SW-620): 3.08 µM | GI50 (SF-295; Homo sapiens): 2.2 µM | CC50 (SF-295; Homo sapiens, read-out: LC50, SF-295, 48 h): 25.7 µM | TGI (SF-295): 6.76 µM | GI50 (U251; Homo sapiens, U-251, 48 h, U251, 48 h): 1.69 µM | CC50 (U251; Homo sapiens, U-251, 48 h, read-out: LC50, U251, 48 h): 6.7 µM | TGI (U251; U251, 48 h): 3.37 µM | GI50 (IGROV1; Homo sapiens, IGROV-1, 48 h, IGROV1, 48 h): 1.94 µM | CC50 (IGROV1; Homo sapiens, IGROV-1, 48 h, read-out: LC50, IGROV1, 48 h): 7.75 µM | TGI (IGROV1; IGROV1, 48 h): 3.87 µM | GI50 (MCF7; Homo sapiens): 1.6 µM | TGI (MCF7): 3.70 µM | GI50 (MDA-MB-468; Homo sapiens): 1.57 µM | CC50 (MDA-MB-468; Homo sapiens, read-out: LC50, MDA-MB-468, 48 h): 5.92 µM | TGI (MDA-MB-468): 3.05 µM
